23 molecules from patent US8268848B2, “Cyclopropane compound” (Eisai R&D Management Co., Ltd., priority 2010, dated 2012) can be followed below.

One assay has as its target T1, OX2 (Homo sapiens, UniProt O43614).
T1 sequence (O43614 1-444): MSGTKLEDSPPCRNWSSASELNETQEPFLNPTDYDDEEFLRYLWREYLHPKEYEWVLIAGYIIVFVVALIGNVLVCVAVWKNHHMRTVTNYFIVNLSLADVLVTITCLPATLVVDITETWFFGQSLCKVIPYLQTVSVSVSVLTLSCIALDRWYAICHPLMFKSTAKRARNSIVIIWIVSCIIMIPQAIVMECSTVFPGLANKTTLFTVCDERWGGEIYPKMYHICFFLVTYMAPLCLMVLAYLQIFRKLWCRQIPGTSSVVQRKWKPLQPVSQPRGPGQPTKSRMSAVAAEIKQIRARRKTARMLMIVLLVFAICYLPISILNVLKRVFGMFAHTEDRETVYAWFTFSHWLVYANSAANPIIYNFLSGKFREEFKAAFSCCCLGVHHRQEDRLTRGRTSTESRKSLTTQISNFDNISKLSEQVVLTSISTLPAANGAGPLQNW
Nature of the assay: Measurement of orexin receptor-binding ability ([125I]-OX-A, cell membranes, OX2). The conditions noted are these: OX2 (IC50) nM, membranes of recombinant CHO cells expressing OX2, 0.2 nM [125I]-OX-A. On the set-up: expressed in transfected cells; host or cells: CHO cells (membrane preparation). As for the experimental part: 1. Measurement of Orexin Receptor-Binding Ability
The assay was carried out using a 96-well Wheat Germ Agglutinin Flash Plate (PerkinElmer). The volume in a single assay well was 100 ul, and the composition of the reaction solution was as follows:
25 mM HEPES (pH 7.5), 1 mM CaCl2, 4.5 mM MgCl2, 0.5% BSA (bovine serum albumin), 0.1% sodium azide, 0.05% Tween-20, and 0.2% DMSO.
Cell membranes were prepared from recombinant CHO cells that expressed OX2 or OX1. The cell membranes were used in an amount of 5 μg protein/assay. […] Finally, the radioactivity of each well was measured using a scintillation counter (TopCount, PerkinElmer).
As to `Cc1ncc(OC[C@@]2(c3cccc(C#N)c3)C[C@H]2C(=O)Nc2ccc(F)cn2)c(C)n1` [Example 116], the IC50 amounted to 14 nM.
Still for that read-out and setting: the result for `Cc1ncc(OC[C@@]2(c3ccc(F)cc3)C[C@H]2C(=O)Nc2cccc(F)c2)c(C)n1` [Example 107] reads 41 nM.
As to `COc1cccc([C@]2(COc3cnc(C)nc3C)C[C@H]2C(=O)Nc2ccc(F)cc2)c1` [Example 187], the half-inhibitory concentration (IC50) is 16 nM.

Staying with this assay, now noted: membranes of recombinant CHO cells expressing OX2, 0.2 nM [125I]-OX-A; read-out: OX2 (IC50).
On to `Cc1ncc(OC[C@@]2(c3cccc(C#N)c3)C[C@H]2C(=O)Nc2ccc(F)cc2)c(C)n1` [Example 115], for which the half-inhibitory concentration (IC50) worked out at 21 nM.
As for `Cc1ncc(OC[C@@]2(c3cc(F)cc(F)c3)C[C@H]2C(=O)Nc2cc(F)ccc2F)c(C)n1` [Example 136], the IC50 amounted to 15 nM.
For `Cc1ncc(OC[C@@]2(c3ccccc3)C[C@H]2C(=O)Nc2ccnc(C(F)(F)F)c2)c(C)n1` [Example 44], the IC50 came out at 26 nM.
Still for that read-out and setting: with `COCc1nc(C)ncc1OC[C@@]1(c2ccccc2)C[C@H]1C(=O)Nc1cccc(F)c1` [Example 148] the figure was 20 nM; with `CCc1nc(C)ncc1OC[C@@]1(c2ccccc2)C[C@H]1C(=O)Nc1cncc(OC)c1` [Example 123], 29 nM.
For the molecule `COCc1nc(C)ncc1OCC1(c2cccc(Cl)c2)CC1C(=O)Nc1ccc(F)cc1` (centres unmarked) [Example 224], the IC50 is 27 nM.
Consider `COCc1nc(C)ncc1OCC1(c2cccc(Cl)c2)CC1C(=O)Nc1ccc(Cl)cn1` (centres unmarked) [Example 223], for which the IC50 was found to be 34 nM.
On the same count and under the same terms, the result for `COCc1nc(C)ncc1OC[C@@]1(c2ccccc2)C[C@H]1C(=O)Nc1cc(C)c(F)cn1` [Example 145, (1R,2S)-N-(5-fluoro-4-methylpyridin-2-yl)-2-{[(4-methoxymethyl-2-methylpyrimidin-5-yl)oxy]methyl}-2-phenylcyclopropanecarboxamide] reads 9 nM.
For `COCc1nc(C)ncc1OC[C@@]1(c2cc(F)cc(OC)c2)C[C@H]1C(=O)Nc1ccc(F)cn1` [Example 233, (1R,2S)-2-(3-fluoro-5-methoxyphenyl)-N-(5-fluoropyridin-2-yl)-2-[(4-methoxymethyl-2-methylpyrimidin-5-yl)oxymethyl]cyclopropanecarboxamide], the IC50 amounted to 6 nM.
With `Cc1ncc(OC[C@@]2(c3ccc(F)c(F)c3)C[C@H]2C(=O)Nc2cc(F)ccc2F)c(C)n1` [Example 172], the concentration for half-maximal inhibition (IC50) is 28 nM.
For `COCCc1nc(C)ncc1OC[C@@]1(c2cccc(F)c2)C[C@H]1C(=O)Nc1ccc(F)cc1` [Example 230], the IC50 was 16 nM.
As for `COCc1nc(C)ncc1OC[C@@]1(c2ccc(F)cc2)C[C@H]1C(=O)Nc1ccc(F)cc1F` [Example 209], the IC50 was 48 nM.
For the molecule `COCc1nc(C)ncc1OC[C@@]1(c2ccccc2)C[C@H]1C(=O)Nc1ccc(C(F)(F)F)cn1` [Example 144], the IC50 was 12 nM.
In the case of `COc1cc([C@]2(COc3cnc(C)nc3C)C[C@H]2C(=O)Nc2ccccn2)ccc1F` [Example 259], the 50% inhibitory concentration (IC50) is above 60 nM.
For `COCc1nc(C)ncc1OC[C@@]1(c2cc(F)cc(F)c2)C[C@H]1C(=O)Nc1cc(C)c(F)cn1` [Example 220], the IC50 is 21 nM.
Turning to `CCc1nc(C)ncc1OC[C@@]1(c2cccc(F)c2)C[C@H]1c1nc2cnccc2[nH]1` [Example 309], the IC50 amounted to 10 nM.
Turning to `COCc1nc(C)ncc1OC[C@@]1(c2ccc(F)c(OC)c2)C[C@H]1C(=O)Nc1cc(C)c(F)cn1` [Example 239, (1R,2S)-2-(4-fluoro-3-methoxyphenyl)-N-(5-fluoro-4-methylpyridin-2-yl)-2-{[(4-methoxymethyl-2-methylpyrimidin-5-yl)oxy]methyl}cyclopropanecarboxamide], the IC50 stood at 7 nM.
On to `COCc1nc(C)ncc1OC[C@@]1(c2ccccc2)C[C@H]1C(=O)Nc1ccc(F)cc1F` [Example 146], for which the half-inhibitory concentration (IC50) was found to be 37 nM.
As for `COCc1nc(C)ncc1OC[C@@]1(c2ccc(F)cc2)C[C@H]1C(=O)Nc1ccccn1` [Example 206], the IC50 worked out at 27 nM.
For the molecule `COc1cc([C@]2(COc3cnc(C)nc3C)C[C@H]2C(=O)Nc2ccc(F)cc2)ccc1F` [Example 315], the half-maximal inhibitory concentration (IC50) was 208 nM.

The IC50 is the concentration that inhibits the measured activity by half.
